Results reported in patent US4738971A, “N-aryl-1,2-dihydro-4-substituted-1-alkyl-2-oxo-quinoline-3-carboxamides” (priority 1981, dated 1988).
Counter-ions that a name gives are not always drawn.

How the values were obtained:
[1] = tested on: carrageenan-induced edema; assay: carrageenan edema test in rats; type: in vivo, rat (female Sprague-Dawley); settings: for significant potentiation of the carrageenan edema: dose within the range 10-160 mg/kg p.o.; for change in vivo at 80 mg/kg: Rattus norvegicus, po, 80 mg/kg p.o., 30 min before carrageenan, edema weight 3 h after, vs control, preliminary, read-out: Potentiation of the carrageenan edema, %
Excerpt: Another test, in which the effect of a drug corresponds to the effects obtained in the tests mentioned above, and which can therefore also be used, is the well-established carrageenan edema test in rats (5). Comparative evaluation of compounds of the present invention in the three tests mentioned has shown that compounds which increase the extent of the delayed hypersensitivity reaction in the pertussis vaccine pleurisy test and in the adjuvant arthritis test also increase the extent of carrageenan-induced edema in the carrageenan edema test, thus providing a further tool for the determination of enhancement of cell-mediated immunity.
This example illustrates the effect of the compounds of the general formula I in the carrageenan edema test in rats.
A modification of a method described in (5) was used. Female Sprague-Dawleyrats weighing 110-120 g was used. At least 10 animals were used in each experimental group. Foot edema was induced by injecting carrageenan in 0.9% NaCl into the plantar surface of the right hind paw of the rats.
The substances suspended in aqueous methocel solution 10 ml/kg were administered intragastrically 30 minutes before the injection of carrageenan. The control groups were given methocel solution 10 ml/kg.
Three hours after carrageenan injection the animals were killed. The hind feet were cut off and weighed. The difference in weight of the injected right paw and the uninjected left paw was called edema weight.
The effect of the substances was assessed by the edema weight expressed in percent after comparison with the control groups.

[2] = tested on: delayed hypersensitivity reaction (pertussis vaccine pleurisy); assay: pertussis vaccine pleurisy test in rats; type: in vivo, rat (male Sprague-Dawley); settings: 10 mg/kg p.o.; for change in vivo at 10 mg/kg: Rattus norvegicus, po, 48 h, once daily day 10 to day 13, vs control, preliminary, read-out: Enhancement of the delayed hypersensitivity reaction assessed by the exudate vol.
Excerpt: A useful test for the evaluation of the effect of chemical compounds on the immune system is the pertussis vaccine pleurisy test in rats. Compounds which enhance the response in this delayed hypersensitivity reaction are considered to stimulate cell-mediated immunity (4).
This example illustrates the effect of the compounds of the general formula I in the pertussis vaccine pleurisy test.
Pertussis vaccine pleurisy is a useful test for the evaluation of the effect of chemical compounds on the immune system. Compounds which enhance the response in this delayed hypersensitivity reaction are considered to stimulate cell-mediated immunity.
A modification of a method described in (4) was used. Male Sprague-Dawley rats weighing 250-275 g were used. At least ten animals were used in each group.
Equal volumes of Freund's incomplete adjuvant and a suspension of heat killed Bordetella pertussis organisms were mixed. To sensitize animals, day 0, 0.2 ml of a mixture containing 0.036×10^10 organisms/ml was injected into the dorsal surface of one hind paw and one forepaw.
The animals were challenged on day 12 with 0.1 ml of a mixture containing 0.25×10^10 organisms/ml that was injected intrapleurally. 48 hours after challenge, day 14, the volume of the exudate in the pleural cavity was measured.
The substances suspended in aqueous methocel solution 10 ml/kg were given intragastrically once daily from day 10 to day 13. The control groups were given methocel solution 10 ml/kg.
The effect of the substances was assessed by the exudate volume expressed in percent after comparison with the control groups.

Structure (SMILES)	significant potentiation of the carrageenan edema [1]	significant enhancing effect in the pertussis vaccine pleurisy test [2]	change in vivo at 80 mg/kg [1] [%]	change in vivo at 10 mg/kg [2] [%]
CN(C(=O)c1c(O)c2cccc3c2n(c1=O)CC3)c1ccccc1 [21:3, N-methyl-N-phenyl-1,2-dihydro-1,8-ethylene-4-hydroxy-2-oxo-quinoline-3-carboxamide]	potentiate significantly	significant enhancing effect	–	–
CN(C)c1ccc(NC(=O)c2c(O)c3cccc4c3n(c2=O)CC4)cc1 [12:8, N-(4-dimethylaminophenyl)-1,2-dihydro-1,8-ethylene-4-hydroxy-2-oxo-quinoline-3-carboxamide]	–	–	51	29
O=C(Nc1ccc(N2CCCC2)cc1)c1c(O)c2cccc3c2n(c1=O)CC3 [12:7, N-(4-pyrrolidinophenyl)-1,2-dihydro-1,8-ethylene-4-hydroxy-2-oxo-quinoline-3-carboxamide, hydrochloride]	potentiate significantly	significant enhancing effect	–	–
CCCn1c(=O)c(C(=O)Nc2ccccn2)c(O)c2ccccc21 [7:10, N-/2-pyridyl/-1,2-dihydro-4-hydroxy-2-oxo-1-n-propyl-quinoline-3-carboxamide]	–	–	24	41
COc1c(C(=O)Nc2ccccc2)c(=O)n2c3c(cccc13)CCC2 [18:2, N-phenyl-1,2-dihydro-4-methoxy-2-oxo-1,8-trimethylene-quinoline-3-carboxamide]	potentiate significantly	–	–	–
COc1c(C(=O)Nc2ccccc2)c(=O)n2c3c(cccc13)CC2 [18:1, N-phenyl-1,2-dihydro-1,8-ethylene-4-methoxy-2-oxo-quinoline-3-carboxamide]	potentiate significantly	–	–	–
CC(=O)Nc1ccc(NC(=O)c2c(O)c3ccccc3n(C)c2=O)cc1 [1:41, N-(4-acetylaminophenyl)-1,2-dihydro-4-hydroxy-1-methyl-2-oxo-quinoline-3-carboxamide]	potentiate significantly	significant enhancing effect	–	–
Cc1csc(NC(=O)c2c(O)c3ccccc3n(C)c2=O)n1 [7:3, N-/2-(4-methyl-thiazolyl)/-1,2-dihydro-4-hydroxy-1-methyl-2-oxo-quinoline-3-carboxamide]	–	–	47	–
O=C(Nc1ccccc1)c1c(O)c2ccccc2n(-c2ccccc2)c1=O [1:3, N-1-diphenyl-1,2-dihydro-4-hydroxy-2-oxo-quinoline-3-carboxamide]	–	–	41	–
Cn1c(=N)c(C(=O)Nc2ccccc2)c(O)c2ccccc21 [11:1, N-phenyl-1,2-dihydro-4-hydroxy-2-imino-1-methyl-quinoline-3-carboxamide]	–	–	46	–
CCN(C(=O)c1c(OC)c2c(F)cccc2n(C)c1=O)c1ccc(OC)c(OC)c1 [21:16, N-(3,4-dimethoxyphenyl)-N-ethyl-1,2-dihydro-5-fluoro-4-methoxy-1-methyl-2-oxo-quinoline-3-carboxamide]	potentiate significantly	significant enhancing effect	–	–
Cn1c(=O)c(C(=O)Nc2ccc(N)cc2)c(O)c2ccccc21 [8:1, N-(4-aminophenyl)-1,2-dihydro-4-hydroxy-1-methyl-2-oxo-quinoline-3-carboxamide]	potentiate significantly	–	–	–
CN(C)c1ccc2c(c1)c(O)c(C(=O)Nc1ccccc1)c(=O)n2C [1:5, N-phenyl-1,2-dihydro-6-dimethylamino-4-hydroxy-1-methyl-2-oxo-quinoline-3-carboxamide]	–	–	28	47
CN(C)c1ccc(N(C)C(=O)c2c(O)c3ccccc3n(C)c2=O)cc1 [21:10, N-(4-dimethylaminophenyl)-N-methyl-1,2-dihydro-4-hydroxy-1-methyl-2-oxo-quinoline-3-carboxamide]	potentiate significantly	significant enhancing effect	–	–
Cn1c(=O)c(C(=O)Nc2ccccc2)c(O)c2ccc(Cl)cc21 [1:17, N-phenyl-7-chloro-1,2-dihydro-4-hydroxy-1-methyl-2-oxo-quinoline-3-carboxamide]	–	–	43	–
COc1ccc2c(c1)c(O)c(C(=O)N(C)c1ccccc1)c(=O)n2C [20:5, N-methyl-N-phenyl-1,2-dihydro-4-hydroxy-6-methoxy-1-methyl-2-oxo-quinoline-3-carboxamide]	potentiate significantly	significant enhancing effect	–	–
COc1c(C(=O)Nc2nccs2)c(=O)n(C)c2ccccc12 [17:1, N-(2-thiazolyl)-1,2-dihydro-4-methoxy-1-methyl-2-oxo-quinoline-3-carboxamide]	potentiate significantly	–	–	–
C=CCN(C(=O)c1c(O)c2ccccc2n(C)c1=O)c1ccccc1 [21:12, N-allyl-N-phenyl-1,2-dihydro-4-hydroxy-1-methyl-2-oxo-quinoline-3-carboxamide]	potentiate significantly	significant enhancing effect	–	–
CN(C(=O)c1c(O)c2ccccc2n(C)c1=O)c1ccc2c(c1)OCO2 [20:29, N-methyl-N-(3,4-methylenedioxyphenyl)-1,2-dihydro-4-hydroxy-1-methyl-2-oxo-quinoline-3-carboxamide]	potentiate significantly	significant enhancing effect	–	–
Cn1c(=O)c(C(=O)Nc2ccccc2)c(N)c2ccccc21 [10:1, N-phenyl-4-amino-1,2-dihydro-1-methyl-2-oxo-quinoline-3-carboxamide]	–	–	36	–
Cn1c(=O)c(C(=O)Nc2ccccn2)c(O)c2ccccc21 [7:2, N-/2-pyridyl/-1,2-dihydro-4-hydroxy-1-methyl-2-oxo-quinoline-3-carboxamide]	–	–	44	–
CN(C(=O)c1c(O)c2c(F)cccc2n(C)c1=O)c1ccccc1 [20:16, N-methyl-N-phenyl-1,2-dihydro-5-fluoro-4-hydroxy-1-methyl-2-oxo-quinoline-3-carboxamide]	potentiate significantly	significant enhancing effect	–	–
CN(C(=O)c1c(O)c2ccccc2n(C)c1=O)c1nccs1 [21:21, N-methyl-N-2-thiazolyl-1,2-dihydro-4-hydroxy-1-methyl-2-oxo-quinoline-3-carboxamide]	potentiate significantly	significant enhancing effect	–	–
O=C(Nc1cccnn1)c1c(O)c2cc(O)cc3c2n(c1=O)CC3 [14:12, N-(3-pyridazinyl)-1,2-dihydro-4,6-dihydroxy-1,8-ethylene-2-oxo-quinoline-3-carboxamide]	potentiate significantly	–	–	–
CC(C)Cn1c(=O)c(C(=O)Nc2ccccc2)c(O)c2ccccc21 [1:15, N-phenyl-1,2-dihydro-4-hydroxy-1-isobutyl-2-oxo-quinoline-3-carboxamide]	–	–	30	–
COc1c(C(=O)Nc2nccs2)c(=O)n2c3c(cccc13)CC2 [16:1, N-(2-thiazolyl)-1,2-dihydro-1,8-ethylene-4-methoxy-2-oxo-quinoline-3-carboxamide]	potentiate significantly	–	–	–
Cn1c(=O)c(C(=O)Nc2ccccc2)c(O)c2cc(Cl)ccc21 [1:18, N-phenyl-6-chloro-1,2-dihydro-4-hydroxy-1-methyl-2-oxo-quinoline-3-carboxamide]	–	–	36	–
CNc1ccc(NC(=O)c2c(O)c3ccccc3n(C)c2=O)cc1 [1:21, N-/4-methylaminophenyl/-1,2-dihydro-4-hydroxy-1-methyl-2-oxo-quinoline-3-carboxamide]	–	–	22	–
